Patent EP2085082A1, “Treatment of cognitive decline” (Nutromnia S.R.L., priority 2008, dated 2009)
Values joined by “and” are separate entries in the source; they are usually repeats but may differ in a detail not shown here. Identical values can stand only once.

How the values were obtained:
Type in all cases: in vivo
Wistar rats [1] = assay: Morris water maze, place discrimination task, age-related cognitive decline; settings: for Swimming time (choice accuracy, time to find the platform): pellets enriched with 5% dodecanedioic acid for 3 months
Protocol: (§1) In order to evaluate the impact of a diet enriched with dicarboxylic acids on age-related cognitive decline, 20 Wistar rats of both sexes (half male and half female), 4 months old and 23 months old were used.
(§2) Rats of the same sex were housed (2-3 per cage) in a colony room with a 12:12 light- dark cycle and ad libitum access to food and water. All behavioural testing occurred during the light phase of the light- dark cycle. Body weight was recorded twice a week.
(§3) The rats were divided in two groups of 10. The rats of a group (treated group) were fed with pellets enriched with 5% dodecanedioic acid, the rats of the other group being the control group. The dietary supplementation was carried out for 3 months and in the last week of treatment both groups underwent some tasks in the Morris water maze in order to test their cognitive abilities.
(§4) A large metal pool (180 cm in diameter) filled with opaque water and kept at a constant temperature 24 ± 1°C and a 10 cm platform were used in place discrimination and visual discrimination tasks. A straight plastic alley (10 × 70 cm) was placed in the large pool and used during the straight swim test to estimate swimming ability. A video-camera was used to record the different phases of the experiments.
(§5) Each rat received 1 day of training with three sessions of five platform trials and one probe trial each and a random order of start positions. During the platform trials, the platform was submerged but accessible to the rat, whereas during the probe trials, the platform was collapsed at the bottom of the tank for variable intervals (from 10 to 40 sec) to test the subject's preference for the platform location. The collapsed platform was then returned to its raised position at the end of the probe trial to maintain the same response-reinforcement contingency as in the platform trials. The percentage of time spent in the correct quadrant, the choice accuracy [i.e. the time in seconds to find the platform], and the travelled distance or distance swum to find and climb on the platform [in centimeters] were measured. A a shorter time to find the platform indicate better performance. Higher scores for a percentage of time spent in the correct quadrant reflected better performance. Location of the platform and a set of spatial cues around the tank were changed between the testing periods.
(§6) Data are reported as mean ± SD. Comparison between groups was made by repeated-measures ANOVA. Body weight was used as a covariance to adjust the significance of between-group differences in speed of swimming. P<0.05 was considered as significant.

Wistar rats [2] = assay: Morris water maze, repeated acquisition task, age-related cognitive decline; settings: old Wistar rats, 5% dodecanedioic acid pellets for 3 months
Protocol: as §1, §2, §3, §4
(§7) The training started on the day after the place discrimination task and consisted of 1 day of training with two sessions of 9 trials each. During the first session, the set of extra maze cues, as well as the location of platform, was different from that on the previous place discrimination task. During the second session, the platform was moved to the new position, with the set of external cues remaining the same. Each session consisted of eight platform trials and one probe trial. The measures of platform and probe trials were the same as in the place discrimination task.
as §6

Goto-Kakizaki rats [3] = assay: Morris water maze, place discrimination task, diabetes-related cognitive decline; settings: for Travelled distance / time of permanence in the correct quadrant / time to find the platform: Goto-Kakizaki rats
Protocol: (§8) In order to evaluate the impact of a diet enriched with dicarboxylic acids on diabetes-related cognitive decline, 10 Wistar rats and 20 Goto-Kakizaki rats of both sexes (half male and half female), aged 4 months were used.
(§9) Rats of the same sex were housed (2-3 per cage) in a colony room with a 12:12 light- dark cycle and ad libitum access to food and water. All behavioral testing occurred during the light phase of the light- dark cycle. Body weight was recorded twice a week.
(§10) Ten Goto-Kakizaki rats (treated group) were selected at random from the initial group of 20 animals and were fed with pellets enriched with 5% dodecanedioic acid. The remaining ten Goto-Kakizaki rats formed the control group and received standard Purina chow. A group of ten Wistar rats was also fed with standard Purina chow, as second control group.
(§11) The dietary supplementation was carried out for 1 month and in the last week of treatment the different groups underwent some tasks in the Morris water maze in order to test their cognitive abilities.
as §4, §5, §6

Goto-Kakizaki rats [4] = assay: Morris water maze, repeated acquisition task, diabetes-related cognitive decline; settings: 5% dodecanedioic acid pellets for 1 month
Protocol: as §8, §9, §10, §11, §4, §7
Data are reported as mean ± SD. Comparison between groups was made by repeated-measures ANOVA. […]

Goto-Kakizaki rats [5] = assay: Morris water maze, place discrimination task, diabetes-related cognitive decline; settings: average value (mean ± SD, 10 rats), 5% dodecanedioic acid pellets for 1 month, listed as dodecanoic acid
[6] = administered orally, rats, overall conclusion
[7] = individual data per rat, old Wistar rats, 5% dodecanedioic acid pellets for 3 months
[8] = average value (mean ± SD, 10 rats)
[9] = average value (mean ± SD, 10 rats), 5% dodecanedioic acid pellets for 1 month
[10] = individual data per rat, 5% dodecanedioic acid pellets for 1 month

**Q.** Which results are given for `O=C(O)CCCCCCCCCCC(=O)O` [C12, dodecanedioic acid]?
**A.** age-related decline in various cognitive functions (Wistar rats [1]; [6]): ameliorates; time in the correct quadrant (Wistar rats [1]; average value (10 rats), old Wistar rats, 5% dodecanedioic acid pellets for 3 months): 41,70%; Travelled distance (Wistar rats [1]; average value (mean ± SD, 10 rats), old Wistar rats, 5% dodecanedioic acid pellets for 3 months): 409,50 cm; Travelled distance (Wistar rats [1]; average value (mean ± SD, 10 rats), old Wistar rats, 5% dodecanedioic acid pellets for 3 months, listed as dodecanoic acid): 409.5± 98.6 cm; Swimming time (choice accuracy, time to find the platform) (Wistar rats [1]; average value (mean ± SD, 10 rats), old Wistar rats): 19,59 sec; Swimming time (choice accuracy, time to find the platform) (Wistar rats [1]; average value (mean ± SD, 10 rats), old Wistar rats, listed as dodecanedioic acid): 19.6 ± 1.6 s; Swimming time (Wistar rats [1]; individual data per rat, old Wistar rats fed pellets enriched with 5% dodecanedioic acid for 3 months): 21,8 sec and 18 sec (3×) and 22 sec and 19 sec and 21 sec and 20 sec and 18,5 sec and 19,6 sec; Travelled distance (Wistar rats [1]; [7]): 370 cm and 400 cm and 300 cm (2×) and 580 cm and 450 cm and 520 cm and 350 cm and 325 cm and 500 cm; time in the correct quadrant (Wistar rats [1]; [7]): 35% (2×) and 50% and 45% and 40% and 42% and 44% and 48% and 37% and 41%; time of permanence in the correct quadrant (Wistar rats [1]; mean ± SD as given in text, old Wistar rats, 5% dodecanedioic acid pellets for 3 months): 41.7±5.2 % sec; Travelled distance in repeated trials (Wistar rats [2]; [8]): 327,00 cm; Travelled distance in repeated trials (Wistar rats [2]; average value (mean ± SD, 10 rats), listed as dodecanedioic acid): 327.0±80.4 cm; Travelled distance in repeated trials (Wistar rats [2]; individual data per rat): 400 cm and 300 cm (3×) and 200 cm and 350 cm and 410 cm and 260 cm and 470 cm and 280 cm; diabetes-related decline in various cognitive functions (Goto-Kakizaki rats [3]; [6]): ameliorates; Travelled distance (Goto-Kakizaki rats [3]; [9]): 423,60 cm; time of permanence in the correct quadrant (Goto-Kakizaki rats [3]; [9]): 44,00 sec; time to find the platform (Goto-Kakizaki rats [3]; [9]): 23,24 sec; time to find the platform (Goto-Kakizaki rats [3]; average value (mean ± SD, 10 rats), 5% dodecanedioic acid pellets for 1 month, listed as dodecanedioic acid): 23.24 ± 2.81 s; Travelled distance (Goto-Kakizaki rats [3]; [10]): 306 cm and 418 cm and 511 cm (2×) and 368 cm and 354 cm and 477 cm and 541 cm and 326 cm and 424 cm; time of permanence in the correct quadrant (Goto-Kakizaki rats [3]; [10]): 41 sec (2×) and 49 sec and 50 sec and 46 sec and 39 sec and 47 sec and 45 sec and 44 sec and 38 sec; time to find the platform (Goto-Kakizaki rats [3]; individual data per rat, pellets enriched with 5% dodecanedioic acid for 1 month): 18,4 sec and 22,6 sec and 23,4 sec and 25,9 sec and 27 sec and 24 sec and 22,1 sec and 23,5 sec and 26,2 sec and 19,3 sec; REPEATED ACQUISITION TASK TRAVELLED DISTANCE (Goto-Kakizaki rats [4]; [8]): 374,10 cm; REPEATED ACQUISITION TASK TRAVELLED DISTANCE (Goto-Kakizaki rats [4]; average value (mean ± SD, 10 rats), listed as dodecanoic acid): 374.1±78.23 cm; REPEATED ACQUISITION TASK TRAVELLED DISTANCE (Goto-Kakizaki rats [4]; individual data per rat): 403 cm and 300 cm (3×) and 370 cm and 359 cm and 291 cm and 444 cm and 498 cm and 476 cm; Travelled distance (Goto-Kakizaki rats [5]): 423.6±83.82 cm
